{
  "source": "EPA's ToxValDB 9.5 (doi:10.2903/j.efsa.2009.201r)",
  "key": {"Anas platyrhynchos": {"tested_on": "Anas platyrhynchos", "conditions": "oral, mortality"}, "Apis mellifera": {"tested_on": "Apis mellifera", "conditions": "acute; duration: 48 hours; dermal; mortality"}, "Canidae": {"tested_on": "Canidae", "conditions": "chronic; duration: 1 years; oral; Dog Other; body weight"}, "Daphnia magna": {"tested_on": "Daphnia magna", "conditions": "chronic/long-term; duration: 21 days; growth"}, "Rattus norvegicus": {"tested_on": "Rattus norvegicus", "conditions": "for NOAEL: chronic"}, "Tagia sp.": {"tested_on": "Tagia sp.", "conditions": "mortality"}},
  "data": [
    {"smiles": "COc1nc(C)nc(NC(=O)NS(=O)(=O)c2ccccc2Cl)n1", "note": "[Chlorsulfuron]", "values": [
      {"measurement": "LD50", "setting": "Anas platyrhynchos; acute, unspecified", "value": "> 5000", "unit": "mg/kg-day"},
      {"measurement": "LC50", "setting": "Anas platyrhynchos; short-term, feed", "value": "> 634", "unit": "mg/kg-day"},
      {"measurement": "LD50", "setting": "Apis mellifera", "value": "> 100", "unit": "µg/piece"},
      {"measurement": "NOAEL", "setting": "Canidae", "value": 60.6, "unit": "mg/kg-day"},
      {"measurement": "LD50", "setting": "Colinus virginianus; acute, oral, mortality", "value": "> 5000", "unit": "mg/kg-day"},
      {"measurement": "NOEL", "setting": "Colinus virginianus; reproduction developmental", "value": 28, "unit": "mg/kg-day"},
      {"measurement": "NOEC", "setting": "Daphnia magna", "value": 12, "unit": "mg/L"},
      {"measurement": "LC50", "setting": "Oncorhynchus mykiss; acute, duration: 96 hours, mortality", "value": "> 122", "unit": "mg/L"},
      {"measurement": "NOEC", "setting": "Oncorhynchus mykiss; chronic/long-term, duration: 77 days, growth", "value": 32, "unit": "mg/L"},
      {"measurement": "LD50", "setting": "Rattus norvegicus; acute, oral, mortality", "value": "> 5540", "unit": "mg/kg-day"},
      {"measurement": "NOAEL", "setting": "Rattus norvegicus", "value": 75, "unit": "mg/kg-day"},
      {"measurement": "NOAEL", "setting": "Rattus norvegicus; duration: 2 years, histopathology: neoplastic", "value": 20, "unit": "mg/kg-day"},
      {"measurement": "LC50", "setting": "Tagia sp.; acute, duration: 14 days", "value": "> 750", "unit": "mg/kg"},
      {"measurement": "NOEC", "setting": "Tagia sp.; chronic/long-term, duration: 56 days", "value": 188, "unit": "mg/kg"}
    ]}
  ]
}
